Data from ChEMBL document CHEMBL5653615 (J Biol Chem, 2013).
Blank lines part the entries; values can stand above or below the compound they belong to. Active and inactive are the calls of the source. The calls are words filed in the database; no cut-off is given here.

What was measured:
[1] = target: T1, Lymphokine-activated killer T-cell-originated protein kinase (Homo sapiens) (UniProt Q96KB5); assay: Inhibition of human TOPK at 18.6 nM by HotSpot assay relative to control
T1 sequence (whole entry): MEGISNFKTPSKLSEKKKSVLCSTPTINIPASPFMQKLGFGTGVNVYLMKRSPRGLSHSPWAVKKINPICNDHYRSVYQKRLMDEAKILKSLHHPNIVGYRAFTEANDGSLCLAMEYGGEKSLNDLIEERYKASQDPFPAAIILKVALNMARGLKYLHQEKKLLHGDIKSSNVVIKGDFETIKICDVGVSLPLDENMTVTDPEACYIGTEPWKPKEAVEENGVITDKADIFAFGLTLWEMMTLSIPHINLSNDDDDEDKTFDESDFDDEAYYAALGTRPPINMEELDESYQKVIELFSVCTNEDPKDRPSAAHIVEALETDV

[2] = target: Insulin receptor (Homo sapiens) (UniProt P06213); assay: Inhibition of wild-type human Insulin receptor autophosphorylation in CHO-K1 cell lysate at 10 uM for 30 mins on ice followed by insulin stimulation for 10 mins by Western blot analysis; type: subcellular; conditions: time 40.0 min
Insulin receptor (Homo sapiens), sequence (P06213 28-758 limits assumed): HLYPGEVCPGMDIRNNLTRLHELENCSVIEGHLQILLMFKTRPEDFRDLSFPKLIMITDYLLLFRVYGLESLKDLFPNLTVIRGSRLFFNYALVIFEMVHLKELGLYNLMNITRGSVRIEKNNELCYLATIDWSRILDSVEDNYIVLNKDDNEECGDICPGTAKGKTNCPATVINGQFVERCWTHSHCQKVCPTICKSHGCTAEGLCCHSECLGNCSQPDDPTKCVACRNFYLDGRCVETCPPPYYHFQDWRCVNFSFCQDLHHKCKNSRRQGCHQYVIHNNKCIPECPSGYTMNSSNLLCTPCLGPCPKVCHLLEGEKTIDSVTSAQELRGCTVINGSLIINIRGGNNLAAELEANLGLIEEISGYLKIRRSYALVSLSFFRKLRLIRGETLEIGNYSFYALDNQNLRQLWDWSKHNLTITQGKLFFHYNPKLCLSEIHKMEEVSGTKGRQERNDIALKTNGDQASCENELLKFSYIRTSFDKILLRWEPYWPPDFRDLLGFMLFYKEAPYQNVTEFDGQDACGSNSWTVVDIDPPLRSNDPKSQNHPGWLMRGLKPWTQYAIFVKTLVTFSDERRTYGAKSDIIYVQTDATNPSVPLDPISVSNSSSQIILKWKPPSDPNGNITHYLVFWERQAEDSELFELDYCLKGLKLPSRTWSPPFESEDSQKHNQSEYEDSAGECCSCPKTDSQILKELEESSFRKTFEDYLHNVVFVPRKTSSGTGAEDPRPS
Insulin receptor (Homo sapiens), sequence (P06213 763-1382 limits assumed): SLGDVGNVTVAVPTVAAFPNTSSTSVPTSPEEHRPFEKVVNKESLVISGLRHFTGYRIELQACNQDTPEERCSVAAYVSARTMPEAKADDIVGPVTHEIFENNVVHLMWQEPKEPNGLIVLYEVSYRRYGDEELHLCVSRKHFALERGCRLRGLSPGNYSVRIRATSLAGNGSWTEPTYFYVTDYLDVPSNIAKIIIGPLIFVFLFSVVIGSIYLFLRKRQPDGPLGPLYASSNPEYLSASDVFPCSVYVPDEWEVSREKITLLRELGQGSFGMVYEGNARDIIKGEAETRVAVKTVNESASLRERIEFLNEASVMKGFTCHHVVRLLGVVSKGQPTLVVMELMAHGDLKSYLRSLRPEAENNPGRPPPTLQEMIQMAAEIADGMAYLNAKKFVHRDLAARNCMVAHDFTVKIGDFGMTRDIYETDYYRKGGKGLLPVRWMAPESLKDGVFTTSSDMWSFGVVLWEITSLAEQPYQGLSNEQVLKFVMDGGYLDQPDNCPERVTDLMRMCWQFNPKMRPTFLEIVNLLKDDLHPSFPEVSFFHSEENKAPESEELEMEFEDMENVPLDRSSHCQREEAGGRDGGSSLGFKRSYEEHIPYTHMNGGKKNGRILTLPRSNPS

[3] = target: T2, Aurora kinase C (Homo sapiens) (UniProt Q9UQB9); assay: Inhibition of human Aurora C at 1.82 nM by HotSpot assay relative to control
T2 sequence (whole entry): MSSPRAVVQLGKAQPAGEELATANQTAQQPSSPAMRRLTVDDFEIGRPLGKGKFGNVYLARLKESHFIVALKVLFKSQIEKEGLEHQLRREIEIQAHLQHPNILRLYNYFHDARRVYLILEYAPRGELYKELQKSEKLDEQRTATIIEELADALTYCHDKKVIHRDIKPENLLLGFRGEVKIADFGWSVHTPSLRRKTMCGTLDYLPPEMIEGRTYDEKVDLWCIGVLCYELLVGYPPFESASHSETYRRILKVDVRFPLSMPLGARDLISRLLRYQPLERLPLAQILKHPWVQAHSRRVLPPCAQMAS

[4] = target: T3, Tyrosine-protein kinase JAK3 (Homo sapiens) (UniProt P52333); assay: Inhibition of human JAK3 at 1.82 nM by HotSpot assay relative to control
T3 sequence (whole entry): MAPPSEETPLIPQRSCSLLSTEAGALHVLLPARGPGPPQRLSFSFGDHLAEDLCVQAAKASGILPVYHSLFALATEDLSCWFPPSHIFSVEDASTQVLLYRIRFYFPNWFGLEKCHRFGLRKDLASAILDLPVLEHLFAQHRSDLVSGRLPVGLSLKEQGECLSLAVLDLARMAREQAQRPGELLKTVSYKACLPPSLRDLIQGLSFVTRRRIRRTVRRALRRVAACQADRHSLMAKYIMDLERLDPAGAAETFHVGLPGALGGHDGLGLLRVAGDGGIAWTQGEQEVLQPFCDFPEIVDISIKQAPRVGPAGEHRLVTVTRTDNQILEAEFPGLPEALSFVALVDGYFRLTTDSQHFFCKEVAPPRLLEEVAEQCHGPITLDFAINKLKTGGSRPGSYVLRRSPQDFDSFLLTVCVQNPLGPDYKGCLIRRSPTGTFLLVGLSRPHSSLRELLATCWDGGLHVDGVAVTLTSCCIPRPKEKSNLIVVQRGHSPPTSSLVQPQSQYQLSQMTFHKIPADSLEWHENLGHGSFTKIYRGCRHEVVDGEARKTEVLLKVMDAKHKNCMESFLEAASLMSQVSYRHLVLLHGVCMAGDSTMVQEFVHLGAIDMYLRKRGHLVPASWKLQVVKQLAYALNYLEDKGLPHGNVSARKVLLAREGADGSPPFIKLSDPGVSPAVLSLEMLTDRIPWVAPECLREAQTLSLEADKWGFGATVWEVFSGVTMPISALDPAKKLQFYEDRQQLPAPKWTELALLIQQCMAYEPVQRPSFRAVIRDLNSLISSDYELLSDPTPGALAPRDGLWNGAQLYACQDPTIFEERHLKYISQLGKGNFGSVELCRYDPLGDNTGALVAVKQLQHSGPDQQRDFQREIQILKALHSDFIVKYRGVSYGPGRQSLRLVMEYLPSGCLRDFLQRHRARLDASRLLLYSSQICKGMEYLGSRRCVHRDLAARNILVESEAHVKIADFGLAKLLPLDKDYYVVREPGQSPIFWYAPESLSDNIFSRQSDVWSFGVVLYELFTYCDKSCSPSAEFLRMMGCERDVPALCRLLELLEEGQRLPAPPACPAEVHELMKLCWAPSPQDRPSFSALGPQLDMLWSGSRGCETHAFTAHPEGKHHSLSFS

[5] = target: T4, Dual specificity mitogen-activated protein kinase kinase 6 (Homo sapiens) (UniProt P52564); assay: Inhibition of human MKK6 at 1.82 nM by HotSpot assay relative to control
T4 sequence (whole entry): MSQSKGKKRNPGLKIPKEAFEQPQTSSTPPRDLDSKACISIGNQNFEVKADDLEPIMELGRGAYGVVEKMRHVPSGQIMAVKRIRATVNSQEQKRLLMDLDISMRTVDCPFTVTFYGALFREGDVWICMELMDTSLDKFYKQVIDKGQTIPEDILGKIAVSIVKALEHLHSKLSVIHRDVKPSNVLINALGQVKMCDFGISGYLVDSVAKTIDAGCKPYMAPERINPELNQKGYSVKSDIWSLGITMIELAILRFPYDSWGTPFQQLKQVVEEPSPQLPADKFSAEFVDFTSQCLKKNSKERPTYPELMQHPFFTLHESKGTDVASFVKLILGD

[6] = target: Ribosomal protein S6 kinase alpha-4 (Homo sapiens) (UniProt O75676); assay: Inhibition of human RPS6KA4 at 1.82 nM by HotSpot assay relative to control
Ribosomal protein S6 kinase alpha-4 (Homo sapiens), sequence (O75676 whole entry, looked up): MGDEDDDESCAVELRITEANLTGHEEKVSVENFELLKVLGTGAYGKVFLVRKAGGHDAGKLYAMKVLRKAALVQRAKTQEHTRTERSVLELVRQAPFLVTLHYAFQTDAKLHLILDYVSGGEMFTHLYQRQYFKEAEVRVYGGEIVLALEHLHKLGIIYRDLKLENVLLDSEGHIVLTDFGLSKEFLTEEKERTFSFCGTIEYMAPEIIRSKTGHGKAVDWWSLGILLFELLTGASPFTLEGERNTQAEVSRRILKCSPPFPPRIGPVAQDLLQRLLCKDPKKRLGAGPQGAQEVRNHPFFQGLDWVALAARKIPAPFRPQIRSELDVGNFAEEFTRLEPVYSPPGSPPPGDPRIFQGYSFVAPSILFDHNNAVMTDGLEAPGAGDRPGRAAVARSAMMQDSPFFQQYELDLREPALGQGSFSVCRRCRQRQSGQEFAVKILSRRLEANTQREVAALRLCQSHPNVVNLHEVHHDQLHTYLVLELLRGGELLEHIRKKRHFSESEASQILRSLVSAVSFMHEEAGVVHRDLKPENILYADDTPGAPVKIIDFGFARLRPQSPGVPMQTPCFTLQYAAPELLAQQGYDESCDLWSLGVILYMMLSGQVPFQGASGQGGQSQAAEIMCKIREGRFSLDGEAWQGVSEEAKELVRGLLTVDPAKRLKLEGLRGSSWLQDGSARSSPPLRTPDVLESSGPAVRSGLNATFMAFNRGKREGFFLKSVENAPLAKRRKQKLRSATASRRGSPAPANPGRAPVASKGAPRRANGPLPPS

[7] = target: Protein kinase C eta type (Homo sapiens) (UniProt P24723); assay: Inhibition of human PKCeta at 1.82 nM by HotSpot assay relative to control
Protein kinase C eta type (Homo sapiens), sequence (P24723 whole entry): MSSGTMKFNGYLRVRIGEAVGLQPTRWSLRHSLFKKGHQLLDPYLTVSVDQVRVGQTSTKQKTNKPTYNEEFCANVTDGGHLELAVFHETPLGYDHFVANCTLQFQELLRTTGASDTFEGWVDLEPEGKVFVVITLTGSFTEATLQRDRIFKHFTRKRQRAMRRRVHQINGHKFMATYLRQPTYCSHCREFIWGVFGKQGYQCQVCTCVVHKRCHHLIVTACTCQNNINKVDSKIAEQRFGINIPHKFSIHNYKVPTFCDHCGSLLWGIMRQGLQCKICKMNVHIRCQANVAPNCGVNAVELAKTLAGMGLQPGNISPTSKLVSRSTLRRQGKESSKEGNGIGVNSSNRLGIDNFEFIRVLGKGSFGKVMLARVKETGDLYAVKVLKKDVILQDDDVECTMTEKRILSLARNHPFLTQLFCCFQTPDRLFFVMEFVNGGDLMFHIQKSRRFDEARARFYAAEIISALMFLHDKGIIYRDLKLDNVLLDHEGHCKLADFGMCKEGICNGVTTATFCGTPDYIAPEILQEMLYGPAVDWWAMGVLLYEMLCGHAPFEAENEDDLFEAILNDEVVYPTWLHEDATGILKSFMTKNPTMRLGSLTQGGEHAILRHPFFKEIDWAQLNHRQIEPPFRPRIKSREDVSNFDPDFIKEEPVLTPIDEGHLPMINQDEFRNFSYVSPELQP

[8] = target: Ribosomal protein S6 kinase alpha-2 (Homo sapiens) (UniProt Q15349); assay: Inhibition of human RSK3 at 1.82 nM by HotSpot assay relative to control
Ribosomal protein S6 kinase alpha-2 (Homo sapiens), sequence (Q15349 whole entry): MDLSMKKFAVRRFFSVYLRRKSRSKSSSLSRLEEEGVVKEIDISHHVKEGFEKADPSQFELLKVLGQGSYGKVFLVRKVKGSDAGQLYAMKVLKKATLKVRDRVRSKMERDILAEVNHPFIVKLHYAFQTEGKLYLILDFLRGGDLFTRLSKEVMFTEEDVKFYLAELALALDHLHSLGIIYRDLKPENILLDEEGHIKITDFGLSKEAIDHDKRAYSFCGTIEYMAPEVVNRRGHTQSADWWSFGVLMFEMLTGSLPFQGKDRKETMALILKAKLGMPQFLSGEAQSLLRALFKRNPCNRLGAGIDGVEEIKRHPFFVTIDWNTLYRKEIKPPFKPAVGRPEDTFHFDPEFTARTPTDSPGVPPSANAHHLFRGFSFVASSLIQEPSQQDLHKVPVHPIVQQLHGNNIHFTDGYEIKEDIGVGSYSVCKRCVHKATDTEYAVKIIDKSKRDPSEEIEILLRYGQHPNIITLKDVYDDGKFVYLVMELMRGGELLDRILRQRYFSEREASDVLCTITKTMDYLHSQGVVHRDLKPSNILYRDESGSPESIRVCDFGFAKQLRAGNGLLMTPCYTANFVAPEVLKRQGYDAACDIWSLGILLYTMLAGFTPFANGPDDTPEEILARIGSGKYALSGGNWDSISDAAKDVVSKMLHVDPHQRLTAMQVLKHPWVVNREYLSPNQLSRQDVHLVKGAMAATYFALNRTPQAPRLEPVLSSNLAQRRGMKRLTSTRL

Compound: C[C@]1(O)C[C@@H](c2nc(-c3ccc4ccc(-c5ccccc5)nc4c3)c3c(N)nccn32)C1
inhibition [1]: 1.57%

Compound: Oc1n[nH]c2nnc(-c3c(-c4ccccc4)nn4ccccc34)cc12
inhibition [2]: Active

inhibition [3]: 35.7% | inhibition [4]: -1.99% | inhibition [5]: 3.26% | inhibition [6]: -3.34% | inhibition [7]: -0.87% | inhibition [8]: -2.19%
Compound: C[C@@]1(C(=O)Nc2ccc(F)nc2)CCCN1c1nc(Nc2cc(C3CC3)n[nH]2)c2cccn2n1
